Source: US12679807B2 (MERCK SHARP & DOHME LLC, priority 2020, dated 2026)

biological target: T1, GCS enzyme contained within Golgi preparations isolated from human A375 malignant melanoma skin cells (Homo sapiens, UniProt Q16739); experiment: UDP-Glo glucosylceramide synthase biochemical assay; details: crude Golgi preparation from A375 cells; C6 ceramide and UDP-glucose substrates; 20 h incubation at room temperature; UDP detected by luminescence
T1 construct: endogenous levels of GCS enzyme contained within Golgi preparations isolated from human A375 malignant melanoma skin cells; endogenous in cells; host or cells: A375 human malignant melanoma cells (crude Golgi preparation)
T1 sequence (Q16739 1-394): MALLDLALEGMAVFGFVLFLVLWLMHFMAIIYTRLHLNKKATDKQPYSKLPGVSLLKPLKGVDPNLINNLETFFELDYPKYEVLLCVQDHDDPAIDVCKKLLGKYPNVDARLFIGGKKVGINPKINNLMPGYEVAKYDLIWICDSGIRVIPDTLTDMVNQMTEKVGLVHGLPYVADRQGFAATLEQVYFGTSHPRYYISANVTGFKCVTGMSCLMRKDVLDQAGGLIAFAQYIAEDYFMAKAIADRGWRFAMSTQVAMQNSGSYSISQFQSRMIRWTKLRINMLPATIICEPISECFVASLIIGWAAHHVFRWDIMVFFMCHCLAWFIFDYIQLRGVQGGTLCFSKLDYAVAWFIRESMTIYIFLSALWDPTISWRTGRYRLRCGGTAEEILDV
From the text: UDP-Glo™ Glucosylceramide Synthase Biochemical Assay
A UDP-Glo™ glucosylceramide synthase biochemical assay was utilized to evaluate the effect of test compounds on the activity of endogenous levels of GCS enzyme contained within Golgi preparations isolated from human A375 malignant melanoma skin cells. The UDP-Glo™ glucosylceramide synthase assay uses UDP-Glucose as a nucleotide-glycosyl donor and ceramide as substrate acceptor molecules. In the reaction, glucosylceramide synthase (GCS) transfers glucose from UDP-Glucose to ceramide. Glucosylceramide and UDP are released as products.
Using Promega's UDP-Glo™ Glycosyltransferase assay kit (Promega Corporation, Madison, WI, USA (Promega)), GCS activity was indirectly measured by detecting the amount of UDP produced. An aliquot of GCS enzyme (1.5 μg crude golgi preparation, total protein) and titrated test compound were aliquoted to each well and incubated for 30 minutes at room temperature. […] An equivalent volume of substrate mixture was then added to each well. Following a 20 h incubation at room temperature to allow for GCS turnover of substrate, an equal volume of UDP detection reagent (Promega) was added to each well and incubated for an additional 75 minutes at room temperature to simultaneously convert the accumulated UDP product into ATP and generate light in a luciferase reaction. The generated light was detected using a luminometer. […] luminescence values (RLUs) were normalized to mean “min” and “max” effects, as determined on each plate. […] Values for % Emax and EC50 were determined by best-fitting the normalized data to a curve in Activity Base along a four-parameter logistic nonlinear regression (4PL) model (based on the Levenberg-Marquardt algorithm and defined by the equation below):
[formula] where: n is 4 PMin (bottom of the curve); m is 4 PMax (top of the curve); i is IP (inflection point of curve); and p is slope. See Levenberg, K., “A Method for the Solution of Certain Problems in Least Squares”, Quart. Appl. Math. […] Math.

EC50 [nM] | Structure (SMILES)
290 | CC(C)(O)C(C1CC1)N1Cc2cccc(/C=C/c3ccc(F)cc3F)c2C1=O (racemic) [Compound 4, (R and S)-(E)-2-(1-cyclopropyl-2-hydroxy-2-methylpropyl)-7-(2,4-difluorostyryl)isoindolin-1-one]
45 | Cc1ccc(-c2ccc(-c3cccc4c3C(=O)N(C(C3CC3)C(C)(C)O)C4)cc2)nn1 (racemic) [Compound 18, (R and S)-2-(1-cyclopropyl-2-hydroxy-2-methylpropyl)-7-(4-(6-methylpyridazin-3-yl)phenyl)isoindolin-1-one]
28 | COc1ccc(-c2cccc3c2C(=O)N(C(C2CC2)C(C)(C)O)C3)cc1OC (racemic) [Compound 19, (R and S)-2-(1-cyclopropyl-2-hydroxy-2-methylpropyl)-7-(3,4-dimethoxyphenyl) isoindolin-1-one]
67 | Cc1cc(-c2cccc3c2C(=O)N(C(C2CC2)C(C)(C)O)C3)cc(C)n1 (racemic) [Compound 20, (R and S)-2-(1-cyclopropyl-2-hydroxy-2-methylpropyl)-7-(2,6-dimethylpyridin-4-yl)isoindolin-1-one]
380 | O=C1c2c(cccc2-c2ccccc2OCC(F)(F)F)CN1CCC1CCC(O)C1 (racemic) [Compound 47, (cis and trans racemic)-2-(2-(3-hydroxycyclopentyl)ethyl)-7-(2-(2,2,2-trifluoroethoxy)phenyl) isoindolin-1-one]
160 | O=C1c2c(cccc2-c2ccc(F)cc2)CN1CCC1CN2CCC1CC2 (racemic) [Compound 52, (R and S)-7-(4-fluorophenyl)-2-(2-(quinuclidin-3-yl)ethyl)isoindolin-1-one]
48 | Cc1nn(C)c(C)c1-c1cccc2c1C(=O)N(CCC1CN3CCC1CC3)C2 (racemic) [Compound 53, (R and S)-2-(2-(quinuclidin-3-yl)ethyl)-7-(1,3,5-trimethyl-1H-pyrazol-4-yl)isoindolin-1-one]
97 | Cc1cc(-c2cccc3c2C(=O)N(CCC2CN4CCC2CC4)C3)ccn1 (racemic) [Compound 54, (R and S)-7-(2-methylpyridin-4-yl)-2-(2-(quinuclidin-3-yl)ethyl)isoindolin-1-one]
160 | CCOc1ccccc1C(=O)Nc1cccc2c1C(=O)N(C(CO)C1CCC1)C2 (racemic) [Compound 101, (R and S)-N-(2-(1-cyclobutyl-2-hydroxyethyl)-3-oxoisoindolin-4-yl)-2-ethoxybenzamide]
550 | CCOc1ccccc1C(=O)Nc1cccc2c1C(=O)N(C1CN3CCC1CC3)C2 (racemic) [Compound 107, (R and S)-2-Ethoxy-N-(3-oxo-2-(quinuclidin-3-yl)isoindolin-4-yl)benzamide]
0.91 | CC(C)(O)C(C1CC1)N1Cc2ccc(F)c(-c3ccccc3OCC(F)(F)F)c2C1=O (single isomer, unassigned) [Compound 21, 2-((R or S)-1-cyclopropyl-2-hydroxy-2-methylpropyl)-6-fluoro-7-(2-(2,2,2-trifluoroethoxy)phenyl) isoindolin-1-one]
0.41 | CC(C)(O)C(C1CC1)N1Cc2cc(F)cc(-c3ccccc3OCC(F)(F)F)c2C1=O (single isomer, unassigned) [Compound 23, (R or S)-2-(1-cyclopropyl-2-hydroxy-2-methylpropyl)-5-fluoro-7-(2-(2,2,2-trifluoroethoxy)phenyl) isoindolin-1-one]

Structure (SMILES) | EC50 [nM]
CCOc1ccccc1C(=O)Nc1cccc2c1C(=O)N(CC1CC3CCN1CC3)C2 (racemic) [Compound 108, 2-Ethoxy-N-(3-oxo-2-(quinuclidin-2-ylmethyl)isoindolin-4-yl)benzamide] | 270
CN(C(=O)OC1CN2CCC1CC2)c1cccc2c1C(=O)N(c1ccc(F)cc1)C2 (racemic) [Compound 170, (R and S)-Quinuclidin-3-yl(2-(4-fluorophenyl)-3-oxoisoindolin-4-yl)(methyl)carbamate] | 130
